Data: the NIST ThermoML archive (doi:10.1021/acs.jced.7b01064)

Assays:
[1] = Liquid, Closed cell (Static) method
[2] = xn = mol fraction of the nth substance listed; conditions: 100 kPa, Liquid, x1 = 0.5; for viscosity: Concentric cylinders viscometry; for mass density: Vibrating tube method
[3] = molar heat capacity at constant pressure; xn = mol fraction of the nth substance listed; conditions: 74.66 kPa, Liquid, DSC, x1 = 0.5

CCCCO [butan-1-ol]
[1]
Conditions	vapor or sublimation pressure [kPa]
293.15 K	0.56
298.15 K	0.84
303.15 K	1.23
308.15 K	1.76
313.15 K	2.44
318.15 K	3.33
323.15 K	4.35
328.15 K	5.33

CCCCOC(=O)CC(O)(CC(=O)O)C(=O)OCCCC (configuration not stated) [2-hydroxy-1,2,3-propanetricarboxylic acid 1,2-dibutyl ester] + CCCCOC(=O)CC(O)(CC(=O)OCCCC)C(=O)O
Conditions	mass density [kg/m3]	molar heat capacity at constant pressure [J/K/mol]	viscosity [mPa·s]
[2], 298.15 K	1129.7	–	3220
[2], 303.15 K	1124.2	–	2120
[2], 313.15 K	1113.4	–	1130
[3], 321.5 K	–	712.66	–
[3], 324.8 K	–	718.9	–
[3], 328.2 K	–	724.78	–
[3], 331.5 K	–	730.1	–
[3], 334.8 K	–	734.82	–
[3], 338.2 K	–	739.17	–
[3], 341.5 K	–	743.58	–
[3], 344.8 K	–	747.72	–
